# Activity calls are given as the source filed them. The rule behind the calls is not given here.
# Tested on: GENE-TOX genotoxicity assays, various organisms and cells
# Assay: GENE-TOX mutagenicity studies
# Settings: for call: Assay Type: In vivo carcinogenicity studies, Assay Code: CCGT
# [1] = Species/Cell Type: Nonhuman, Evaluation Type: Evaluation A (Pre-1980)
# [2] = Species/Cell Type: Salmonella typhimurium (one or more of the five standard strains: TA98, TA100, TA1535, TA1537, and TA1538), Assay Type: Histidine reverse gene mutation, Ames assay, Assay Code: SAL+, Evaluation Type: Evaluation A (Pre-1980)
# [3] = Species/Cell Type: Mammalian polychromatic erythrocytes, Assay Type: Micronucleus test, chromosome aberrations, Assay Code: MNT-, Evaluation Type: Evaluation B (Post-1980)
# [4] = Species/Cell Type: Salmonella typhimurium (one or more of the five standard strains: TA98, TA100, TA1535, TA1537, and TA1538), Assay Type: Histidine reverse gene mutation, Ames assay, Assay Code: SALT, Evaluation Type: Evaluation A (Pre-1980)
# [5] = Species/Cell Type: Mammalian polychromatic erythrocytes, Assay Type: Micronucleus test, chromosome aberrations, Assay Code: MNTT, Evaluation Type: Evaluation B (Post-1980)
# [6] = Species/Cell Type: Saccharomyces cerevisiae, Assay Type: Mitotic recombination or gene conversion, Assay Code: YEC+, Evaluation Type: Evaluation A (Pre-1980)
# [7] = Species/Cell Type: Salmonella typhimurium (one or more of the five standard strains: TA98, TA100, TA1535, TA1537, and TA1538), Assay Type: Histidine reverse gene mutation, Ames assay, Assay Code: SAL-, Evaluation Type: Evaluation A (Pre-1980)
compound,measurement,setting,value
Oc1c2ccccc2c2ccc3cccc4ccc1c2c43,mutagenic call,"Species/Cell Type: Chinese hamster lung (V79) cells, Assay Type: Forward gene mutation at the HPRT or ouabain locus, Assay Code: V79+/-*, Activation: With metabolic activation, Evaluation Type: Evaluation A (Pre-1980)","inactive; positive without activation, negative with activation"
same,call,[1],no conclusion
same,mutagenic call,[2],active; positive
CCCC(=O)C1c2cccc(O)c2C(=O)c2c(O)cccc21,mutagenic call,[3],inactive; negative
Nc1ccc(-c2nc(NCC(O)CO)c3ccccc3n2)s1 (configuration not stated),mutagenic call,[4],no conclusion
O=C(O)c1cc(I)cc(I)c1I,mutagenic call,"Species/Cell Type: Hordeum vulgare (barley), Assay Type: Chromosome aberrations, Assay Code: HOC+, Evaluation Type: Evaluation A (Pre-1980)",active; positive
CS(=O)(=O)OCCCCOS(C)(=O)=O,mutagenic call,"Species/Cell Type: Arabidopsis species, Assay Type: Gene mutation, Assay Code: ARM+, Evaluation Type: Evaluation A (Pre-1980)",active; positive
same,mutagenic call,"Species/Cell Type: Chinese hamster ovary (CHO) cells, Assay Type: Forward gene mutation at the HPRT locus, Assay Code: CHO+, Evaluation Type: Evaluation B (Post-1980)",active; positive
same,mutagenic call,"Species/Cell Type: Drosophila melanogaster, Assay Type: Sex-linked recessive lethal gene mutation, Assay Code: SRL+, Evaluation Type: Evaluation A (Pre-1980)",active; positive
same,mutagenic call,"Species/Cell Type: Escherichia coli polA (W3119 vs P3478), Assay Type: Rec-assay, DNA effects (bacterial DNA repair), Assay Code: RE1+, Evaluation Type: Evaluation A (Pre-1980)",active; positive
same,mutagenic call,"Species/Cell Type: Hordeum vulgare (barley), Assay Type: Chromosome aberrations, Assay Code: HOC+D, Dose Response: With dose response, Evaluation Type: Evaluation A (Pre-1980)",active; positive
same,mutagenic call,"Species/Cell Type: Human lymphocytes or leukocytes, Assay Type: Chromosome aberrations in vitro, Assay Code: CY7+D, Dose Response: With dose response, Evaluation Type: Evaluation A (Pre-1980)",active; positive
same,mutagenic call,"Species/Cell Type: Human lymphocytes, Assay Type: Sister-chromatid exchange (SCE) in vitro, Assay Code: SCL+D, Dose Response: With dose response, Evaluation Type: Evaluation A (Pre-1980)",active; positive
same,mutagenic call,"Species/Cell Type: Human lymphocytes, Assay Type: Sister-chromatid exchange (SCE) in vivo, Assay Code: SCY+, Evaluation Type: Evaluation B (Post-1980)",active; positive
same,mutagenic call,"Species/Cell Type: Human, Assay Type: Sister-chromatid exchange (SCE) in vitro, Assay Code: SC1+D, Dose Response: With dose response, Evaluation Type: Evaluation A (Pre-1980)",active; positive
same,mutagenic call,"Species/Cell Type: Mammalian germ cells, Sex: Male, Assay Type: Chromosome aberrations in vivo, Assay Code: CY9T, Evaluation Type: Evaluation A (Pre-1980)",no conclusion
same,mutagenic call,"Species/Cell Type: Mammalian polychromatic erythrocytes, Assay Type: Micronucleus test, chromosome aberrations, Assay Code: MNT+, Evaluation Type: Evaluation B (Post-1980)",active; positive
same,mutagenic call,"Species/Cell Type: Mammalian polychromatic erythrocytes, Assay Type: Micronucleus test, chromosome aberrations, Assay Code: MNTT, Evaluation Type: Evaluation A (Pre-1980)",no conclusion
same,mutagenic call,"Species/Cell Type: Mouse lymphoma (L5178Y) cells, Assay Type: Forward gene mutation at the thymidine kinase (TK) locus, chromosome aberrations, Assay Code: L51+, Evaluation Type: Evaluation A (Pre-1980)",active; positive
same,mutagenic call,"Species/Cell Type: Mouse, Sex: Male, Assay Type: Sperm morphology, Assay Code: SPI+, Evaluation Type: Evaluation A (Pre-1980)",active; positive
same,mutagenic call,"Species/Cell Type: Neurospora crassa, Assay Type: Forward gene mutation, Assay Code: NEF+, Evaluation Type: Evaluation A (Pre-1980)",active; positive
same,mutagenic call,"Species/Cell Type: Nonhuman bone marrow, Assay Type: Chromosome aberrations, in vivo, Assay Code: CY#+D, Dose Response: With dose response, Evaluation Type: Evaluation A (Pre-1980)",active; positive
same,call,[1],no conclusion
same,mutagenic call,"Species/Cell Type: Nonhuman, Assay Type: Sister-chromatid exchange (SCE) in vitro, Assay Code: SC2+, Evaluation Type: Evaluation B (Post-1980)",active; positive
same,mutagenic call,"Species/Cell Type: Rabbit, Sex: Male, Assay Type: Sperm morphology, Assay Code: SPR+, Evaluation Type: Evaluation A (Pre-1980)",active; positive
same,mutagenic call,"Species/Cell Type: Rodents, Sex: Male, Assay Type: Dominant lethal test, Assay Code: DLT+, Evaluation Type: Evaluation A (Pre-1980)",active; positive
O=P(O)(O)Oc1c(Br)cc(Br)cc1-c1cc(Br)cc(Br)c1O,mutagenic call,[5],no conclusion
ClCCl,mutagenic call,"Species/Cell Type: Drosophila melanogaster, Assay Type: Sex-linked recessive lethal gene mutation, Assay Code: SRL-, Evaluation Type: Evaluation A (Pre-1980)",inactive; negative
same,mutagenic call,"Species/Cell Type: Fischer rat embryo (RLV/1706) cells, Assay Type: Cell transformation, viral enhanced, Assay Code: CTR+, Evaluation Type: Evaluation A (Pre-1980)",active; positive
same,mutagenic call,[3],inactive; negative
same,mutagenic call,"Species/Cell Type: Nonhuman, Assay Type: Sister-chromatid exchange (SCE) in vitro, Assay Code: SC2+D, Dose Response: With dose response, Evaluation Type: Evaluation B (Post-1980)",active; positive
same,mutagenic call,[6],active; positive
same,mutagenic call,"Species/Cell Type: Saccharomyces cerevisiae, Assay Type: Mitotic recombination or gene conversion, Assay Code: YEH+, Evaluation Type: Evaluation A (Pre-1980)",active; positive
same,mutagenic call,"Species/Cell Type: Saccharomyces cerevisiae, Assay Type: Reverse gene mutation, Assay Code: YER+, Evaluation Type: Evaluation A (Pre-1980)",active; positive
same,mutagenic call,[2],active; positive
O=C1CCc2c1ccc1c2ccc2ccccc21,mutagenic call,"Species/Cell Type: Human lymphocytes, Assay Type: Sister-chromatid exchange (SCE) in vitro, Assay Code: SCLT, Evaluation Type: Evaluation B (Post-1980)",no conclusion
same,mutagenic call,"Species/Cell Type: Human, Assay Type: Sister-chromatid exchange (SCE) in vitro, Assay Code: SC1T, Evaluation Type: Evaluation B (Post-1980)",no conclusion
same,mutagenic call,"Species/Cell Type: Salmonella typhimurium (one or more of the five standard strains: TA98, TA100, TA1535, TA1537, and TA1538), Assay Type: Histidine reverse gene mutation, Ames assay, Assay Code: SAL+*, Activation: With metabolic activation, Evaluation Type: Evaluation A (Pre-1980)",active; positive
CCN(CC)c1nc(C)cc(OP(=S)(OC)OC)n1,mutagenic call,[5],no conclusion
O=P(O)(O)O,mutagenic call,"Species/Cell Type: Syrian hamster embryo (SA7/SHE) cells, Assay Type: Cell transformation, viral enhanced, Assay Code: CT7-, Evaluation Type: Evaluation A (Pre-1980)",inactive; negative
CC1CN(N=O)C(=O)NC1=O (configuration not stated),mutagenic call,[2],active; positive
[Pb],mutagenic call,"Species/Cell Type: Human lymphocytes or leukocytes, Assay Type: Chromosome aberrations in vitro, Assay Code: CY7-, Evaluation Type: Evaluation A (Pre-1980)",inactive; negative
same,mutagenic call,"Species/Cell Type: Human lymphocytes or leukocytes, Assay Type: Chromosome aberrations in vivo, Assay Code: CY8T, Evaluation Type: Evaluation A (Pre-1980)",no conclusion
same,mutagenic call,"Species/Cell Type: Human, Sex: Male, Assay Type: Sperm morphology, Assay Code: SPH+, Evaluation Type: Evaluation A (Pre-1980)",active; positive
same,mutagenic call,"Species/Cell Type: Nonhuman bone marrow, Assay Type: Chromosome aberrations, in vivo, Assay Code: CY#-, Evaluation Type: Evaluation A (Pre-1980)",inactive; negative
same,call,[1],no conclusion
CCCCC/C=C\C/C=C\C/C=C\CCCCC(=O)O,mutagenic call,[5],no conclusion
CC#CC#CC#Cc1ccccc1,mutagenic call,"Species/Cell Type: Nonhuman, Assay Type: Sister-chromatid exchange (SCE) in vitro, Assay Code: SC2T, Evaluation Type: Evaluation B (Post-1980)",no conclusion
Cc1c(N)c(=O)n(-c2ccccc2)n1C,mutagenic call,[7],inactive; negative
Nc1ccc2c(c1)-c1ccccc1C2,mutagenic call,"Species/Cell Type: Fischer rat embryo (RLV/1706) cells, Assay Type: Cell transformation, viral enhanced, Assay Code: CTR-, Evaluation Type: Evaluation A (Pre-1980)",inactive; negative
O=C1CNCC(=O)N1C1CC1N1C(=O)CNCC1=O (configuration not stated),mutagenic call,"Species/Cell Type: Chinese hamster lung (V79) cells, Assay Type: Forward gene mutation at the HPRT or ouabain locus, Assay Code: V79-, Evaluation Type: Evaluation A (Pre-1980)",inactive; negative
NNc1cc2c(nn1)CCN(C(=O)c1ccccc1)C2,mutagenic call,"Species/Cell Type: Nonhuman, Assay Type: Sister-chromatid exchange (SCE) in vivo, Assay Code: SC3+, Evaluation Type: Evaluation B (Post-1980)",active; positive
CCCCCCCCCCCCCC(=O)ON(C(=O)CCCCCCCCCCCCC)c1ccc2c(c1)Cc1ccccc1-2,mutagenic call,"Species/Cell Type: Human diploid fibroblasts, Assay Type: Unscheduled DNA synthesis (UDS) in vitro, DNA effects, Assay Code: UDH+, Evaluation Type: Evaluation A (Pre-1980)",active; positive
same,mutagenic call,[4],no conclusion
Cc1ccc(N=O)cc1,mutagenic call,[6],active; positive
CC(C)c1ccccc1,mutagenic call,"Species/Cell Type: Saccharomyces cerevisiae, Assay Type: Mitotic recombination or gene conversion, Assay Code: YEH-, Evaluation Type: Evaluation A (Pre-1980)",inactive; negative
same,mutagenic call,[7],inactive; negative

# — PubChem BioAssay AID1259408 (Genetic Toxicology Data Bank (GENE-TOX), 2018)
